Results published in ChEMBL document CHEMBL4257454, “Study on the interaction between the 1,4,5,8-naphthalene diimide-spermine conjugate (NDIS) and DNA using a spectroscopic approach and molecular docking” (Medchemcomm, 2017).
Blank lines part the entries; values can stand above or below the compound they belong to. The source made the active and inactive calls. No cut-off for these calls is given here.

Legend:
[1] = tested on: Clupeidae; assay: Binding affinity to herring sperm DNA after 30 mins by UV-visible spectrophotometric method
[2] = tested on: Clupeidae; assay: Binding affinity to herring sperm DNA assessed as hypochromism at 80 uM after 30 mins by UV-visible spectrophotometric method
[3] = tested on: Clupeidae; assay: Binding affinity to herring sperm DNA assessed as red shift at 80 uM after 30 mins by UV-visible spectrophotometric method
[4] = tested on: Clupeidae; assay: Binding affinity to herring sperm DNA groove assessed as hyperchromic effect at DNA to compound molar ratio of >5.5 after 30 mins by UV-visible spectrophotometric method
[5] = tested on: Clupeidae; assay: Binding affinity to herring sperm DNA assessed as test compound fluorescence quenching by fluorescence spectroscopic method relative to control
[6] = tested on: Clupeidae; assay: Inhibition of ethidium bromide binding to herring sperm DNA assessed as fluorescence quenching of DNA-ethidium bromide complex up to 120 uM after 30 mins by fluorescence spectroscopic assay relative to control; design: scale not given: the % may be the effect or the level left
[7] = tested on: Clupeidae; assay: Binding affinity to herring sperm DNA groove assessed as fluorescence quenching at DNA to compound molar ratio of >5.5 by fluorescence spectroscopic method
[8] = tested on: Clupeidae; assay: Binding affinity to herring sperm DNA assessed as Stern-Volmer quenching constant at 298 K by fluorescence spectroscopic method
[9] = tested on: Clupeidae; assay: Binding affinity to herring sperm DNA assessed as Stern-Volmer quenching constant at 303 K by fluorescence spectroscopic method
[10] = tested on: Clupeidae; assay: Binding affinity to herring sperm DNA assessed as Stern-Volmer quenching constant at 310 K by fluorescence spectroscopic method
[11] = tested on: Clupeidae; assay: Binding affinity to herring sperm DNA assessed as quenching constant at 298 K by fluorescence spectroscopic method
[12] = tested on: Clupeidae; assay: Binding affinity to herring sperm DNA assessed as quenching constant at 303 K by fluorescence spectroscopic method
[13] = tested on: Clupeidae; assay: Binding affinity to herring sperm DNA assessed as quenching constant at 310 K by fluorescence spectroscopic method
[14] = tested on: Clupeidae; assay: Inhibition of ethidium bromide binding to herring sperm DNA assessed as Stern-Volmer quenching constant at 298 K after 30 mins by fluorescence spectroscopic assay
[15] = tested on: Clupeidae; assay: Inhibition of ethidium bromide binding to herring sperm DNA assessed as Stern-Volmer quenching constant at 303 K after 30 mins by fluorescence spectroscopic assay
[16] = tested on: Clupeidae; assay: Inhibition of ethidium bromide binding to herring sperm DNA assessed as Stern-Volmer quenching constant at 310 K after 30 mins by fluorescence spectroscopic assay
[17] = tested on: Clupeidae; assay: Binding affinity to herring sperm DNA at 298 K by fluorescence spectroscopic method
[18] = tested on: Clupeidae; assay: Binding affinity to herring sperm DNA at 303 K by fluorescence spectroscopic method
[19] = tested on: Clupeidae; assay: Binding affinity to herring sperm DNA at 310 K by fluorescence spectroscopic method
[20] = tested on: Clupeidae; assay: Inhibition of ethidium bromide binding to herring sperm DNA at 298 K after 30 mins by fluorescence spectroscopic assay
[21] = tested on: Clupeidae; assay: Inhibition of ethidium bromide binding to herring sperm DNA at 303 K after 30 mins by fluorescence spectroscopic assay
[22] = tested on: Clupeidae; assay: Inhibition of ethidium bromide binding to herring sperm DNA at 310 K after 30 mins by fluorescence spectroscopic assay
[23] = tested on: Clupeidae; assay: Binding affinity to herring sperm DNA assessed as iodide quenching at 20 uM after 30 mins by fluorescence method (reference value: 27 L/mol)
[24] = tested on: Clupeidae; assay: Binding affinity to herring sperm DNA at 40 uM after 30 mins in presence of Na+ by fluorescence quenching method
[25] = tested on: Clupeidae; assay: Binding affinity to herring sperm DNA assessed as negative peak at 16 to 48 uM up to 30 mins by circular dichroism method (reference value: 210 nanometer)
[26] = tested on: Clupeidae; assay: Binding affinity to herring sperm DNA assessed as positive peak at 16 to 48 uM up to 30 mins by circular dichroism method (reference value: 280 nanometer)
[27] = tested on: Clupeidae; assay: Binding affinity to herring sperm DNA assessed as blue shift at 16 to 48 uM up to 30 mins by circular dichroism method
[28] = tested on: Clupeidae; assay: Binding affinity to herring sperm DNA groove assessed as up-field shift at 3 mg by 1H NMR method
[29] = tested on: Clupeidae; assay: Inhibition of ethidium bromide binding to herring sperm DNA assessed as DNA insertion at 3 mg by 1H NMR method
[30] = tested on: Clupeidae; assay: Inhibition of ethidium bromide binding to herring sperm DNA assessed as quenching constant at 298 K after 30 mins by fluorescence spectroscopic assay
[31] = tested on: Clupeidae; assay: Inhibition of ethidium bromide binding to herring sperm DNA assessed as quenching constant at 303 K after 30 mins by fluorescence spectroscopic assay
[32] = tested on: Clupeidae; assay: Inhibition of ethidium bromide binding to herring sperm DNA assessed as quenching constant at 310 K after 30 mins by fluorescence spectroscopic assay

Kapp [1]: 1.47 ×10⁵ L/mol
SMILES: NCCCCNCCCN

Activity [2]: 60.7%
Activity [3]: Active
Activity [4]: Active
Kapp [1]: 1.55 ×10³ L/mol
Activity [5]: 91%
Activity [6]: 87.8%
Activity [7]: Active
KSV [8]: 5.32 ×10³ L/mol
KSV [9]: 5.63 ×10³ L/mol
KSV [10]: 4.63 ×10³ L/mol
Kq [11]: 5.32 ×10¹¹ L/mol
Kq [12]: 5.63 ×10¹¹ L/mol
Kq [13]: 4.63 ×10¹¹ L/mol
KSV [14]: 1.18 ×10⁵ L/mol
KSV [15]: 1.28 ×10⁵ L/mol
KSV [16]: 1.45 ×10⁵ L/mol
Kb [17]: 1.38 ×10⁴ L/mol
Kb [18]: 1.25 ×10⁴ L/mol
Kb [19]: 1.7 ×10⁴ L/mol
Kb [20]: 1.23 ×10⁵ L/mol
Kb [21]: 1.25 ×10⁵ L/mol
Kb [22]: 1.21 ×10⁵ L/mol
KSV [23]: 18.1 L/mol
Activity [24]: Active
Activity [25]: 245 nm
Activity [26]: 280 nm
Activity [27]: Active
Activity [28]: Active
Activity [29]: Active
Kq [30]: 1.18 ×10¹³ L/mol
Kq [31]: 1.28 ×10¹³ L/mol
Kq [32]: 1.45 ×10¹³ L/mol
SMILES: NCCCNCCCCNCCCN1C(=O)c2ccc3c4c(ccc(c24)C1=O)C(=O)N(CCCNCCCCNCCCN)C3=O

Activity [2]: 40%
Activity [5]: 68.5%
Activity [6]: 77.2%
SMILES: NCCCNCCCCNCCCN1C(=O)c2cccc3cccc(c23)C1=O
